US9360486B2, “Allergen fragments” (Biomay AG, priority 2007, dated 2016)

Test system: Amb a 1-specific T cell lines (TCL)
Experiment: T cell epitope mapping of Amb a 1.3: proliferation (3H-thymidine uptake) of TCL stimulated with synthetic peptides
Format: cell-based, human
Details: for No. positive patients SI > 3 / No. positive patients SI > 5 / % (positive patients SI > 3) / % (positive patients SI > 5): TCL from 48 ragweed pollen-allergic patients, peptide 5 μg/ml; for No. positive patients SI > 3 / No. positive patients SI > 5: 3H-thymidine uptake after 48 hrs; for No. positive patients SI > 3 / % (positive patients SI > 3): stimulation index > 3; for No. positive patients SI > 5 / % (positive patients SI > 5): stimulation index > 5; for T cell activating region recognized by % of patients: classes of prevalence referring to SI>5, 48 TCL
Source text: The T cell response to Amb a 1 was characterized in detail using the established in vitro culture system (Jahn-Schmid et al., J. Immunol. 169: 6005-11, 2002; Jahn-Schmid et al., J. Allergy Clin. Immunol., 115: 399-404, 2005). In total, 85 clinically well-defined patients (75 from Vienna/10 from Milano) with typical case history, positive skin prick test and CAP/RAST tests for ragweed extract were included.
Peripheral blood mononuclear cells (PBMC) were isolated from heparinized blood of allergic patients by Ficoll density gradient centrifugation. To generate allergen-specific T cell lines (TCL) and T cell clones (TCC), 1.5×10^6 PBMC were stimulated with optimal doses of ragweed or mugwort extract (4 μg/ml) or rAmb a 1.3 (10 μg/ml) in 24-well flat-bottomed culture plates (Costar, USA). After 5 days human rIL-2 (10 U/ml, Boehringer, Mannheim, Germany) were added and cultures were continued for additional 7 days. Then, T cell blasts were isolated by density centrifugation. The majority of T cell blasts was further expanded with IL-2 and irradiated PBMC. A small number of T cell blasts were used to establish monoclonal T cell cultures by limiting dilution: 0.3 T cells/well were seeded into 96 well round bottom plates (Nunclone) in the presence of 2×10^5 irradiated (60 Gy) PBMC, 0.25% v/v PHA (Gibco, USA) and rIL-2 (4 U/well) in the medium mentioned above. After 14-21 days, growing microcultures were expanded at weekly intervals with irradiated PBMC and rIL-2. The specificity of TCC was assessed in proliferation assays using irradiated allogeneic or HLA-matched PBMC or irradiated EBV-transformed allogeneic B-cells and 5 μg/ml Amb a 1.3. After 48 hours, cellular uptake of tritiated (^3H)-thymidine was performed to measure proliferation in counts per minute (cpm). When the stimulation index (SI; ratio between cpm obtained in cultures containing TCC plus autologous APC plus antigen, and cpm obtained in cultures containing TCC and APC alone) was >10, responses were considered as positive. Allergen-specific TCC were expanded by alternating turns of stimulation with autologous irradiated APC and allergen or with allogeneic feeder cells and rIL-2.
Amb a 1-specific TCL and TCC were used to identify T cell epitopes of Amb a 1.3. T cell cultures were stimulated with a panel of 121 synthetic 12-mer peptides and one 13-mer representing the C-terminal peptide of Amb a 1.3 (Pepset, Biotrend, Germany). Peptides had been synthesized according to the Amb a 1.3 amino acid sequence and overlapped for 9 amino acid residues with the neighbouring peptides (Table 1). Peptides were used at a concentration of 5 μg/ml for stimulation and proliferation of T cell cultures was determined after 48 hrs by ^3H-thymidine-uptake. Because of the frequently observed high background caused by auto-reactivity in TCL, the mean of the cpm observed with the ten least stimulating peptides (none of the peptides was toxic) was used as negative control in calculations of SI. Throughout this manuscript, a peptide comprised one T cell epitope when the stimulation index was at least 3.0.
T cell epitope mapping of Amb a 1.3 was performed evaluating 48 TCL from different patients ([…]), which had been initiated with ragweed extract (containing the natural allergen) or rAmb a 1.3 (Table 2). TCL induced with either ragweed extract or rAmb a 1.3 from the same individual recognized similar T cell epitopes (Table 2; FIG. 7). […] Therefore, their data were combined for further analysis (Table 3). Typical for many inhalant allergens, multiple T cell activating regions were detected in Amb a 1.3. The number of peptides recognized by T cells from a single individual ranged from 2 to maximum 60 peptides with a mean of 17.8 peptides (median=16/for SI>3; resp. 0-36/11.9/12 for SI>5) (see Table 3). In total, 26 relevant (i.e. recognized by ≧10% of patients studied) T cell activating regions comprising 12-18 aa were identified. […]

Row | Sequence | reactivity with T cells isolated from allergic individuals | No. positive patients SI > 3 | No. positive patients SI > 5 | % (positive patients SI > 3) [%] | % (positive patients SI > 5) [%] | T cell activating region recognized by % of patients
1 | LATVAFNMFTDN (Amb a 1 fragment) [Peptide 79] | reactivity with T cells | 5 | 2 | 10.4 | 4.2 | –
2 | LCQGNRFLAPDD (Amb a 1 fragment) [Peptide 95] | – | 0 | 0 | 0.0 | 0.0 | –
3 | LDDDVANPKEGT (Amb a 1 fragment) [Peptide 24] | – | 2 | 1 | 4.2 | 2.1 | –
4 | LLENGAIFVTSG (Amb a 1 fragment) [Peptide 108] | reactivity with T cells | 27 | 24 | 56.3 | 50.0 | –
5 | LPGGMIKSNDGP (Amb a 1 fragment) [Peptide 51] | reactivity with T cells | 6 | 3 | 12.5 | 6.3 | –
6 | LRFAAAQNRPLW (Amb a 1 fragment) [Peptide 28] | reactivity with T cells | 15 | 11 | 31.3 | 22.9 | –
7 | LTLMNVKNIIIH (Amb a 1 fragment) [Peptide 44] | reactivity with T cells | 15 | 9 | 31.3 | 18.8 | recognized by 18.8%
8 | LTSSAGVLSCRP (Amb a 1 fragment) [Peptide 120] | reactivity with T cells | 14 | 9 | 29.2 | 18.8 | –
9 | LVDVTLGSTHVT (Amb a 1 fragment) [Peptide 66] | – | 4 | 4 | 8.3 | 8.3 | –
10 | MIPAEPGEAAIK (Amb a 1 fragment) [Peptide 116] | – | 6 | 4 | 12.5 | 8.3 | –
11 | MNVKNIIIHNIN (Amb a 1 fragment) [Peptide 45] | – | 2 | 0 | 4.2 | 0.0 | –
12 | MVINLNQELVVN (Amb a 1 fragment) [Peptide 34] | – | 2 | 2 | 4.2 | 4.2 | –
13 | NETRSLQACEAY (Amb a 1 fragment) [Peptide 5] | – | 4 | 0 | 8.3 | 0.0 | –
14 | NGAIFVTSGSDP (Amb a 1 fragment) [Peptide 109] | reactivity with T cells | 12 | 9 | 25.0 | 18.8 | –
15 | NGAIFVTSGSDPVLTPVQ (Amb a 1 fragment) [Peptide 109-111] | reactivity with T cells | – | – | – | – | recognized by 22.9%
16 | NGGLTLMNVKNI (Amb a 1 fragment) [Peptide 43] | – | 4 | 1 | 8.3 | 2.1 | –
17 | NIIDKCWRGKAD (Amb a 1 fragment) [Peptide 9] | – | 3 | 2 | 6.3 | 4.2 | –
18 | NINIHDVKVLPG (Amb a 1 fragment) [Peptide 48] | reactivity with T cells | 10 | 9 | 20.8 | 18.8 | –
19 | NLNQELVVNSDK (Amb a 1 fragment) [Peptide 35] | – | 1 | 1 | 2.1 | 2.1 | –
20 | NMFTDNVDQRMP (Amb a 1 fragment) [Peptide 81] | reactivity with T cells | 7 | 6 | 14.6 | 12.5 | –
21 | NPKEGTLRFAAA (Amb a 1 fragment) [Peptide 26] | – | 0 | 0 | 0.0 | 0.0 | –
22 | NRQALADCAQGF (Amb a 1 fragment) [Peptide 14] | – | 4 | 0 | 8.3 | 0.0 | –
23 | NVAGSSQIWIDH (Amb a 1 fragment) [Peptide 59] | reactivity with T cells | 11 | 8 | 22.9 | 16.7 | –
24 | NVAGSSQIWIDHCSLSKS (Amb a 1 fragment) [Peptide 59-61] | reactivity with T cells | – | – | – | – | recognized by 58.3%
25 | NYDRWGTYAIGG (Amb a 1 fragment) [Peptide 89] | reactivity with T cells | 11 | 6 | 22.9 | 12.5 | –
26 | PDDQIKKNVLAR (Amb a 1 fragment) [Peptide 98] | reactivity with T cells | 13 | 8 | 27.1 | 16.7 | –
27 | PDDQIKKNVLARTGT (Amb a 1 fragment) [Peptide 98-99] | reactivity with T cells | – | – | – | – | recognized by 16.7%
28 | PILRQASDGDTI (Amb a 1 fragment) [Peptide 55] | – | 3 | 1 | 6.3 | 2.1 | –
29 | PLWIIFKNDMVI (Amb a 1 fragment) [Peptide 31] | reactivity with T cells | 11 | 10 | 22.9 | 20.8 | –
30 | PSVNETRSLQAC (Amb a 1 fragment) [Peptide 4] | – | 4 | 1 | 8.3 | 2.1 | –
